Laboratory results published in patent US20250042912A1, “NOVEL NON-FLUORINATED QUINOLONE COMPOUND AND USE THEREOF” (priority 2021, published 2025).
Converted amounts (≈) assume the structure as drawn.

Legend:
Assay type in all cases: cell-based
[1] = tested on: Propionibacterium acnes ATCC 6919; test: Minimum inhibitory concentration (MIC) assay, Propionibacterium acnes ATCC 6919; details: Cutibacterium acnes, ATCC6919; anaerobic culture 35+/-2°C, 48 hours; read with naked eyes
Description: (§1) On the day of the experiment, the compound in the flask was dissolved in 100% DMSO until the concentration of mother liquor was 0.4 mg/mL. If the mother liquor was not used on the same day, it was stored at −80° C. for future use. The compound mother liquor and standard antibiotics were subjected to 2-fold gradient dilution with corresponding solvents on a 96-microwell plate (V-bottom) to obtain 100× working solutions (Well 1 to Well 7) in sequence. Among them, the concentrations of the compound were 400 μg/mL, 200 μg/mL, 100 μg/mL, 50 μg/mL, 25 μg/mL, 12.5 μg/mL, 6.25 μg/mL, and 3.125 μg/mL. 100% DMSO was used as growth control (Well 8). As such, the compound motherplate was obtained. Two days before the experiment, anaerobic bacteria (Propionibacterium acnes) stored in a cryogenic tube at −80° C. were scribed on an MBA (Brucella Agar+5% (v/v) defibrillated sheep blood+[…] Hemin+1 μg/mLVitamin K1) plate. The anaerobic bacteria were placed in a 35+/−2° C. anaerobic incubator for 42-48 hours of cultivation. On the day of the experiment, the plate was taken out, clones were picked from the plate and suspended in physiological saline. Then, the turbidity of the bacterial suspension (containing 1.0-2.0×10^8 CFU/mL) was adjusted to OD600=0.2 by a turbidity meter. Then, the adjusted bacterial suspension was diluted to an appropriate concentration with the assay culture medium: about 5×10^5 CFU/mL for aerobic bacteria, and about 1×10^6 CFU/mL for anaerobic bacteria. As such, the inoculating solution was obtained. […] Therefore, the final assay concentrations of the compound were 4 μg/mL, 2 μg/mL, 1 μg/mL, 0.5 μg/mL, 0.25 μg/mL, 0.125 μg/mL, 0.06 μg/mL and 0.03 μg/mL. The total volume of each well on the assay plate was 200 μL: containing 1% DMSO, about 5×10^5 CFU/mL of aerobic bacteria and about 1×10^6 CFU/mL of anaerobic bacteria. All assay plates for aerobic bacteria were aerobically cultured at 35+/−2° C. for 16 to 20 hours, and all assay plates for anaerobic bacteria were anaerobically cultured in an anaerobic incubator at 35+/−2° C. for 48 hours. Note: for anaerobic bacteria, both the preparation of bacterial solution in step 2 and the inoculation of bacterial solution in step 3 were operated in an anaerobic workstation.

[2] = tested on: Propionibacterium acnes ATCC 11827; test: Minimum inhibitory concentration (MIC) assay, Propionibacterium acnes ATCC 11827; details: Cutibacterium acnes, ATCC11827; anaerobic culture 35+/-2°C, 48 hours; read with naked eyes
Description: as §1

[3] = tested on: Staphylococcus epidermidis ATCC 35984; test: Minimum inhibitory concentration (MIC) assay, Staphylococcus epidermidis ATCC 35984; details: ATCC35984, aerobic culture 35+/-2°C, 16 to 20 hours, read with naked eyes
Description: On the day of the experiment, the compound in the flask was dissolved in 100% DMSO until the concentration of mother liquor was 0.4 mg/mL. If the mother liquor was not used on the same day, it was stored at −80° C. for future use.
The compound mother liquor and standard antibiotics were subjected to 2-fold gradient dilution with corresponding solvents on a 96-microwell plate (V-bottom) to obtain 100× working solutions (Well 1 to Well 7) in sequence. Among them, the concentrations of the compound were 400 μg/mL, 200 μg/mL, 100 μg/mL, 50 μg/mL, 25 μg/mL, 12.5 μg/mL, 6.25 μg/mL, and 3.125 μg/mL. 100% DMSO was used as growth control (Well 8). As such, the compound motherplate was obtained.
One day before the experiment, aerobic bacteria (Staphylococcus epidermidis) stored in a cryogenic tube at −80° C. were scribed on an MHA (Cation-adjusted Mueller-Hinton agar) plate. The aerobic bacteria were placed in a 35+/−2° C. incubator for 18-24 hours of aerobic cultivation.
On the day of the experiment, the plate was taken out, clones were picked from the plate and suspended in physiological saline. Then, the turbidity of the bacterial suspension (containing 1.0-2.0×10^8 CFU/mL) was adjusted to OD600=0.2 by a turbidity meter. Then, the adjusted bacterial suspension was diluted to an appropriate concentration with the assay culture medium: about 5×10^5 CFU/mL for aerobic bacteria, and about 1×10^6 CFU/mL for anaerobic bacteria. As such, the inoculating solution was obtained.
2 μl of 2-fold series dilution of 100× high-concentration working solution was transferred from a compound mother plate (prepared in step 1) to a round-bottom 96-well plate, and then 198 μL of bacterial inoculating solution (prepared in step 2) was added to each well to obtain an MIC assay plate. Therefore, the final assay concentrations of the compound were 4 μg/mL, 2 μg/mL, 1 μg/mL, 0.5 μg/mL, 0.25 μg/mL, 0.125 μg/mL, 0.06 μg/mL and 0.03 μg/mL. The total volume of each well on the assay plate was 200 μL: containing 1% DMSO, about 5×10^5 CFU/mL of aerobic bacteria and about 1×10^6 CFU/mL of anaerobic bacteria.
All assay plates for aerobic bacteria were aerobically cultured at 35+/−2° C. for 16 to 20 hours, and all assay plates for anaerobic bacteria were anaerobically cultured in an anaerobic incubator at 35+/−2° C. for 48 hours.

CN(C)c1cc2c(cn1)-c1ccc3c(=O)c(C(=O)O)cn(C4CC4)c3c1COC2 [Compound 6]
MIC [1]: 0.03 µg/mL (≈ 0.0766 µM) | MIC [2]: 0.03 µg/mL (≈ 0.0766 µM) | MIC [3]: 0.06 µg/mL (≈ 0.153 µM)
